From ChEMBL document CHEMBL1136391, “Synthesis and activity of a C-8 keto pleuromutilin derivative” (2003)
≈ marks a conversion by molar mass, not a printed value.

How the values were obtained:
Type in all cases: functional
[1] = test system: Streptococcus pneumoniae; assay: Minimum inhibitory concentration against Streptococcus pneumoniae / Penicillin Resistant
[2] = test system: Haemophilus influenzae; assay: Minimum inhibitory concentration against Haemophilus influenzae / Pen+
[3] = test system: Staphylococcus aureus; assay: Minimum inhibitory concentration against Staphylococcus aureus / Homo MR
[4] = test system: Moraxella catarrhalis; assay: Minimum inhibitory concentration against Moraxella catarrhalis / Pen+

SMILES	MIC [1] [µg/mL]	MIC [2] [µg/mL]	MIC [3] [µg/mL]	MIC [4] [µg/mL]
C=C[C@]1(C)C[C@@H](OC(=O)Nc2ccc(OC)cc2)[C@]2(C)C(C)CC(=O)[C@]3(CCC(=O)[C@H]32)[C@@H](C)[C@@H]1O (stereo partly drawn)	32 (≈ 66.2 µM)	64 (≈ 132 µM)	32 (≈ 66.2 µM)	64 (≈ 132 µM)
C=C[C@]1(C)C[C@@H](OC(=O)Nc2ccc(OC)cc2)[C@]2(C)C(C)CC[C@]3(CCC(=O)[C@H]32)[C@@H](C)[C@@H]1O (stereo partly drawn)	0.003 (≈ 0.00639 µM)	4 (≈ 8.52 µM)	0.003 (≈ 0.00639 µM)	0.125 (≈ 0.266 µM)
